Assay results as given in patent US20060263453A1, “Methods and compositions for modulating glutamate dehydrogenase” (priority 2004, published 2006).

Test system: rat islets
Assay: BCH-stimulated insulin secretion and oxygen consumption in perifused islets
Assay type: cell-based, Wistar rat
Protocol: In this Example, the effects of EGCG and EGC on LSIS were measured, while simultaneously monitoring respiration rates. More particularly, the effects of EGCG (20 μM) and EGC (20 μM) on BCH-stimulated insulin secretion were measured. First, 1000 adult male Wistar rat islets were isolated as described above and were cultured on a glass perfusion chamber in 10 mM glucose for 3 days. Next, the islets were perifused in an oxygen consumption measurement apparatus containing BCH, along with 0 μM EGCG and 0 μM EGC, 20 μM EGCG, or 20 μM EGC. The perifusion apparatus used in these Examples consisted of a peristaltic pump, a water bath (37° C.), a gas exchanger (artificial lung: media flowed through the thin-walled silastic tubing loosely coiled in a glass jar that contained 20% O2 and 5% CO2 balanced with N2), and fraction collector. All transfer lines were insulated. After the system was provided with 20 μM EGCG or 20 μM EGC, oxygen partial pressure was recorded every 10 seconds by phosphorescence lifetimes of an oxygen-sensitive porphyrin (palladium-mesotetra; 4-carboxyphenyl porphyrin dendrimer). The dye molecules were excited with pulses at 524 nm from a UV lead and emission was measured at 690 nm. The inflow oxygen tension was measured in the absence of islets in the chamber before and after each experiment. The perifusate was a Krebs buffer (pH 7.4) containing 2.2 mM Ca^2+, 1% bovine serum albumin equilibrated with 20% O2 and 5% CO2 balanced with N2. The flow rate was […] and samples were collected every 2 minutes for insulin measurements by radioimmunoassay. The results are summarized in FIG. 6, and are presented as means±S.E. for 1000 islets from 3 separate experiments for EGCG (and from 1 experiment for EGC). Due to the high density of data, S.E. is only shown in every 20 samples.

SMILES: O=C(O[C@@H]1Cc2c(O)cc(O)cc2O[C@@H]1c1cc(O)c(O)c(O)c1)c1cc(O)c(O)c(O)c1 [EGCG, (2R,3R)-2-(3,4,5-Trihydroxyphenyl)-3,4-dihydro-1 (2H)-benzopyran-3,5,7-triol 3-(3,4,5-trihydroxybenzoate)]
- effect on LSIS (BCH-induced insulin secretion) (20 μM, FIG. 6A): strongly inhibited
- effect on BCH-induced increase in respiration rates (20 μM, FIG. 6B): inhibited
- effect on oxygen consumption in the absence of BCH (data not shown): did not have any significant effect
